Measurements published in ChEMBL document CHEMBL1201862, “PubChem BioAssay data set” (2004).
Where a name gives a salt, the structure may show the parent alone.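 Step 1: Grow cells in 96-well plates. Step 2: Expose to compound for 48 hours at 5 concentrations. Step 3: Interpolate endpoints linearly; if unreached, use highest concentration. GI50 is the concentration that inhibits growth by half.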 Activity calls are given as the source filed them. Rule as the data show it: active = GI50 up to about 1.1 µM and inactive = higher.

Key:
Test in all cases: inhibition of tumour cell growth, NCI panel, 48 h
[1] = test system: 786-0
[2] = test system: A498
[3] = test system: BT-549
[4] = test system: DU-145
[5] = test system: HCT-15
[6] = test system: HOP-62
[7] = test system: HT-29
[8] = test system: MOLT-4
[9] = test system: NCI/ADR-RES
[10] = test system: OVCAR-3
[11] = test system: RXF 393
[12] = test system: SK-MEL-2
[13] = test system: SN12C
[14] = test system: SNB-19
[15] = test system: T47D
[16] = test system: UACC-62
[17] = test system: MDA-MB-435
[18] = test system: NCI-H522
[19] = test system: HOP-92

CCOC(=O)c1c(NC(=O)c2cccs2)sc2c1CCC2
GI50 [1]: > 100 µM (inactive) | GI50 [2]: > 100 µM (inactive) | GI50 [3]: > 100 µM (inactive) | GI50 [4]: > 100 µM (inactive) | GI50 [5]: > 100 µM | GI50 [6]: > 100 µM (inactive) | GI50 [7]: > 100 µM (inactive) | GI50 [8]: > 100 µM (inactive) | GI50 [9]: > 100 µM (inactive) | GI50 [10]: > 100 µM (inactive) | GI50 [11]: > 100 µM (inactive) | GI50 [12]: > 100 µM (inactive) | GI50 [13]: > 100 µM (inactive) | GI50 [14]: > 100 µM (inactive) | GI50 [15]: > 100 µM (inactive) | GI50 [16]: > 100 µM (inactive)

O=[N+]([O-])C(C(Cl)=C(Cl)Cl)=C(N1CCOCC1)N1CCOCC1
GI50 [1]: > 100 µM (inactive) | GI50 [2]: > 100 µM (inactive) | GI50 [4]: > 100 µM (inactive) | GI50 [5]: > 100 µM | GI50 [6]: > 100 µM (inactive) | GI50 [7]: > 100 µM (inactive) | GI50 [17]: > 100 µM (inactive) | GI50 [8]: 63.2 µM (inactive) | GI50 [18]: > 100 µM (inactive) | GI50 [10]: > 100 µM (inactive) | GI50 [11]: > 100 µM (inactive) | GI50 [12]: > 100 µM (inactive) | GI50 [13]: > 100 µM (inactive) | GI50 [14]: > 100 µM (inactive) | GI50 [15]: > 100 µM (inactive) | GI50 [16]: > 100 µM (inactive)

O=C(O)C(C(C(=O)O)P(=O)(O)O)P(=O)(O)O (configuration not stated)
GI50 [1]: > 100 µM (inactive) | GI50 [2]: > 100 µM (inactive) | GI50 [3]: > 100 µM (inactive) | GI50 [4]: > 100 µM (inactive) | GI50 [5]: > 100 µM | GI50 [19]: 86.1 µM (inactive) | GI50 [7]: > 100 µM (inactive) | GI50 [17]: > 100 µM (inactive) | GI50 [8]: > 100 µM (inactive) | GI50 [10]: > 100 µM (inactive) | GI50 [12]: > 100 µM (inactive) | GI50 [14]: > 100 µM (inactive) | GI50 [16]: > 100 µM (inactive)

CN(C)c1cccc2c(S(=O)(=O)NCCCNCCN)cccc12
GI50 [1]: 53.1 µM (inactive) | GI50 [2]: 29.6 µM (inactive) | GI50 [4]: > 100 µM (inactive) | GI50 [5]: > 100 µM | GI50 [6]: 67.8 µM (inactive) | GI50 [19]: 34.4 µM (inactive) | GI50 [7]: 25.9 µM (inactive) | GI50 [17]: 27.4 µM (inactive) | GI50 [8]: 18.6 µM (inactive) | GI50 [18]: 48.1 µM (inactive) | GI50 [9]: > 100 µM (inactive) | GI50 [10]: 62.5 µM (inactive) | GI50 [11]: 36.8 µM (inactive) | GI50 [12]: 25.9 µM (inactive) | GI50 [13]: 78 µM (inactive) | GI50 [14]: > 100 µM (inactive) | GI50 [15]: 49.4 µM (inactive) | GI50 [16]: 51.2 µM (inactive)

N#CSC#CCCC#CSC#N
GI50 [1]: 20.3 µM (inactive) | GI50 [2]: 20 µM (inactive) | GI50 [3]: 21.7 µM (inactive) | GI50 [4]: 15 µM (inactive) | GI50 [5]: 18.2 µM | GI50 [6]: 19.3 µM (inactive) | GI50 [19]: 17.5 µM (inactive) | GI50 [7]: 21.3 µM (inactive) | GI50 [17]: 23 µM (inactive) | GI50 [8]: 2.58 µM (inactive) | GI50 [18]: 2.2 µM (inactive) | GI50 [9]: 28.2 µM (inactive) | GI50 [10]: 21.6 µM (inactive) | GI50 [11]: 18.9 µM (inactive) | GI50 [12]: 20.3 µM (inactive) | GI50 [13]: 17.7 µM (inactive) | GI50 [14]: 15.5 µM (inactive) | GI50 [16]: 17 µM (inactive)

O=C(O)c1ccc(Nc2cnc3cc(C(F)(F)F)ccc3n2)cc1
GI50 [1]: 67.6 µM (inactive) | GI50 [4]: 58.5 µM (inactive) | GI50 [5]: 25.6 µM | GI50 [6]: 90.2 µM (inactive) | GI50 [7]: 63.2 µM (inactive) | GI50 [17]: 43.5 µM (inactive) | GI50 [8]: 47.5 µM (inactive) | GI50 [18]: 25.8 µM (inactive) | GI50 [9]: 40.9 µM (inactive) | GI50 [10]: 34.5 µM (inactive) | GI50 [11]: 46.9 µM (inactive) | GI50 [13]: 85.5 µM (inactive) | GI50 [14]: 60 µM (inactive) | GI50 [15]: 20.9 µM (inactive) | GI50 [16]: 25.3 µM (inactive)

O=Cc1cc2c(cc1-c1c(C=O)ccc3c1OCO3)OCO2
GI50 [1]: > 10 µM (inactive) | GI50 [3]: > 10 µM (inactive) | GI50 [4]: > 10 µM (inactive) | GI50 [5]: > 10 µM | GI50 [6]: > 10 µM (inactive) | GI50 [19]: > 10 µM (inactive) | GI50 [7]: > 10 µM (inactive) | GI50 [17]: > 10 µM (inactive) | GI50 [8]: > 10 µM (inactive) | GI50 [9]: > 10 µM (inactive) | GI50 [10]: > 10 µM (inactive) | GI50 [13]: > 10 µM (inactive) | GI50 [14]: > 10 µM (inactive) | GI50 [15]: > 10 µM (inactive) | GI50 [16]: > 10 µM (inactive)

COC(=O)/C=C(\C)CC/C=C(\C)CCC(O)C(C)(C)O (configuration not stated)
GI50 [1]: 19.4 µM (inactive) | GI50 [2]: 33 µM (inactive) | GI50 [3]: 29 µM (inactive) | GI50 [5]: 23.3 µM | GI50 [6]: 21.8 µM (inactive) | GI50 [19]: 29.9 µM (inactive) | GI50 [7]: 31.4 µM (inactive) | GI50 [8]: 15.2 µM (inactive) | GI50 [9]: 18.7 µM (inactive) | GI50 [10]: 17.9 µM (inactive) | GI50 [11]: 26.3 µM (inactive) | GI50 [12]: 15.9 µM (inactive) | GI50 [13]: 19.3 µM (inactive) | GI50 [14]: > 100 µM (inactive) | GI50 [16]: 25.1 µM (inactive)

Clc1cccc(C2ON=C(c3ccccc3)N2C23CC4CC(CC(C4)C2)C3)c1Cl (configuration not stated)
GI50 [1]: > 10 µM (inactive) | GI50 [2]: > 10 µM (inactive) | GI50 [4]: > 10 µM (inactive) | GI50 [5]: > 10 µM | GI50 [6]: > 10 µM (inactive) | GI50 [19]: 2.72 µM (inactive) | GI50 [7]: > 10 µM (inactive) | GI50 [17]: > 10 µM (inactive) | GI50 [8]: > 10 µM (inactive) | GI50 [18]: > 10 µM (inactive) | GI50 [9]: > 10 µM (inactive) | GI50 [10]: > 10 µM (inactive) | GI50 [11]: > 10 µM (inactive) | GI50 [12]: > 10 µM (inactive) | GI50 [13]: > 10 µM (inactive) | GI50 [14]: > 10 µM (inactive) | GI50 [15]: > 10 µM (inactive) | GI50 [16]: > 10 µM (inactive)

CCOC(=O)c1ccc(NCc2ccc3oc(=O)c(-c4ccccc4)nc3c2)cc1
GI50 [1]: 34.5 µM (inactive) | GI50 [2]: 61.1 µM (inactive) | GI50 [4]: 36.2 µM (inactive) | GI50 [5]: 81.5 µM | GI50 [6]: > 100 µM (inactive) | GI50 [19]: 31.2 µM (inactive) | GI50 [7]: 57.4 µM (inactive) | GI50 [17]: 16.2 µM (inactive) | GI50 [8]: 15.1 µM (inactive) | GI50 [18]: 6.21 µM (inactive) | GI50 [9]: 50.7 µM (inactive) | GI50 [10]: 18.7 µM (inactive) | GI50 [11]: 8.36 µM (inactive) | GI50 [12]: > 100 µM (inactive) | GI50 [13]: > 100 µM (inactive) | GI50 [14]: > 100 µM (inactive) | GI50 [15]: 12.4 µM (inactive) | GI50 [16]: > 100 µM (inactive)

CC(=O)OCC(Br)C1(C)CCC(C(C)(C)Br)O1 (configuration not stated)
GI50 [1]: > 100 µM (inactive) | GI50 [2]: > 100 µM (inactive) | GI50 [3]: 79.6 µM (inactive) | GI50 [4]: > 100 µM (inactive) | GI50 [6]: > 100 µM (inactive) | GI50 [19]: 20.6 µM (inactive) | GI50 [7]: 62.7 µM (inactive) | GI50 [17]: 69.5 µM (inactive) | GI50 [8]: 73.8 µM (inactive) | GI50 [18]: 28.5 µM (inactive) | GI50 [9]: > 100 µM (inactive) | GI50 [10]: 59.2 µM (inactive) | GI50 [11]: 51.1 µM (inactive) | GI50 [12]: 39.1 µM (inactive) | GI50 [13]: 94.2 µM (inactive) | GI50 [14]: > 100 µM (inactive)

C#Cc1cccc(Nc2ncnc3cc(OCCOC)c(OCCOC)cc23)c1 [ERLOTINIB HYDROCHLORIDE]
GI50 [1]: 8.91 µM (inactive) | GI50 [5]: 4.76 µM | GI50 [6]: 31.3 µM (inactive) | GI50 [19]: 4.05 µM (inactive) | GI50 [7]: 27.2 µM (inactive) | GI50 [17]: 4.06 µM (inactive) | GI50 [9]: 7.67 µM (inactive) | GI50 [12]: 4.11 µM (inactive) | GI50 [13]: < 0.01 µM (active) | GI50 [14]: < 0.01 µM (active) | GI50 [16]: < 0.01 µM (active)

O=C1Cc2c([nH]c3ccc(Br)cc23)-c2ccccc2N1 [KENPAULLONE]
GI50 [1]: > 46.3 µM (inactive) | GI50 [2]: > 100 µM (inactive) | GI50 [4]: > 100 µM (inactive) | GI50 [5]: 4.46 µM | GI50 [6]: 65.8 µM (inactive) | GI50 [19]: > 100 µM (inactive) | GI50 [7]: 5.19 µM (inactive) | GI50 [17]: > 100 µM (inactive) | GI50 [8]: 13.5 µM (inactive) | GI50 [18]: > 100 µM (inactive) | GI50 [9]: > 100 µM (inactive) | GI50 [10]: 3.95 µM (inactive) | GI50 [11]: 5.11 µM (inactive) | GI50 [12]: > 100 µM (inactive) | GI50 [13]: > 100 µM (inactive) | GI50 [14]: > 78.5 µM (inactive) | GI50 [15]: > 100 µM (inactive) | GI50 [16]: > 100 µM (inactive)
